Patent publication US20200384003A1, “TRITERPENOID-CONTAINING PHARMACEUTICAL COMPOSITION AND USE THEREOF” (SHANGHAI LANMU CHEMICALS CO., LTD., priority 2017, published 2020)

Key:
[1] = biological target: T1, mutated lens protein (αB-crystallin R120G) (Homo sapiens, UniProt P02511, R120G); assay: Intracellular mutated lens protein aggregation inhibition experiment in transfected HeLa cells (Example 21); assay type: cell-based; conditions: 10 μM, treated 3.5 hours, then 6.5 h normal medium, fewer + = better
T1 construct: expressed in transfected cells; host or cells: HeLa
T1 sequence (P02511 1-175 R120G): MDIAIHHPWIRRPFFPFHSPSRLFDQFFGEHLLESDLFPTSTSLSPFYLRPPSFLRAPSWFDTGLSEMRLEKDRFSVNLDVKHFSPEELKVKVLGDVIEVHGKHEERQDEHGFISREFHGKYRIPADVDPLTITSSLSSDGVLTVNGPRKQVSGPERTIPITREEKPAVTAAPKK
Protocol: In this example, apart of the specific compounds obtained in Example 19 and Example 20 were selected for intracellular mutated lens protein (αB-crystallin R120G) aggregation inhibition experiment (experimental method was described in Chinese patent CN201580057679). The aggregation inhibition activities of compound I and compound II in the present invention on lens protein mutants were evaluated to screen a compound which was effective in treating related disease such as cataract.
The tumor cell line HeLa was selected as a host cell transfected with the mutant lens protein (αB-crystallin […]) expression plasmid, the medium was DMEM with […], and the culture conditions were 37° C., saturated humidity and 5% carbon dioxide cell incubator. Mycoplasma was negative. The transfection process is that the appropriate number of HeLa cells were inoculated on the pre-coated slides. When fully adherent cells grew to about 75% cell density, the expression vector was transfected with liposome. After 4 hours of transfection, the medium was changed to normal medium. Then the HeLa cells were cultured in the cell incubator for 13 hours to induce the expression of exogenous mutant lens protein. After changing the medium, the replaced new medium contained various compounds of the formula I and formula II of the present invention to be tested (DMSO was used as solvent in all mother fluid), wherein the final concentration of each compound was 10 μM, the negative control was 1.5% DMSO solvent, and the positive control was lanosterol (10 μM). The HeLa cells were treated with the medium containing the test compound, 1.5% DMSO solvent and lanosterol for 3.5 hours, respectively, and the normal fresh medium containing no DMSO, test compound or lanosterol was exchanged and the cells were cultured for another 6.5 h, then Anti-p62 antibody and DAPI were used for routine cellular immunofluorescence detection. The field of vision of three positions per slide was randomly selected, the ratio of cells containing aggregated crystalline proteins (lens protein aggregates) was calculated, and the effect of each test compound on intracellular aggregation of mutant lens proteins was finally determined, the results were shown in Table 19.

[2] = Pharmacokinetic study, drug in aqueous humor after eye glass cavity injection (Example 5); assay type: in vivo; conditions: SD rats, 5 μl injected into each glass cavity, detected 10 days after the surgery
Protocol: SD rats (about 10 weeks old, male or female) were anesthetized by intraperitoneal injection of pentobarbital sodium and pupil was dilated, then eye glass cavity injection surgery was performed. All animals were injected with the same kind of drugs in both eyes. The amount of drug injected into each glass cavity was 5 μl, and the number of test animals per drug formulation (Example 1, Example 2 and Comparative Example 1) was four, and the drug metabolism in the aqueous humor was detected 10 days after the surgery.

[3] = Heat stability at 80° C. versus 4° C., HPLC and appearance (Example 18); assay type: physicochemical; conditions: for appearance after heat storage: compared with 4° C.
Protocol: The heatl stabilities of inotodiol and trametenolic acid were tested, and lanosterol was used as a reference at the same time.

[4] = test system: diabetic metabolite cataract; assay: Therapeutic effect on diabetic metabolite cataract, streptozotocin model (Example 11); assay type: in vivo, SD rats; conditions: right eye of diabetic rat, pictures before and after 2 months of treatment (FIG. 25-29)

Row | SMILES | Inhibitory effect (percentage of cells containing aggregated proteins) [1] | also measured
1 | C[C@H](C(O)CCC(C)(C)O)[C@H]1CC[C@@]2(C)C3=CCC4C(C)(C)[C@@H](O)CC[C@]4(C)C3=CC[C@]12C (some centres unmarked) [Compound 21] | + (<30% of the cells in the field of vision contained protein aggregates) | –
2 | C[C@H](C(O)CC(O)C(C)(C)O)[C@H]1CC[C@@]2(C)C3=C(CC[C@]12C)[C@@]1(C)CC[C@H](O)C(C)(C)C1CC3 (some centres unmarked) [Compound 17] | ++ (>30% and <45% of the cells in the field of vision contained protein aggregates) | –
3 | C[C@H](C(O)CCC(C)(C)O)[C@H]1CC[C@@]2(C)C3=C(CC[C@]12C)[C@@]1(C)CC[C@H](O)C(C)(C)C1CC3 (some centres unmarked) [Compound 15] | + (<30% of the cells in the field of vision contained protein aggregates) | –
4 | C[C@H](C(O)CC(=O)C(C)(C)O)[C@H]1CC[C@@]2(C)C3=C(CC[C@]12C)[C@@]1(C)CC[C@H](O)C(C)(C)C1CC3 (some centres unmarked) [Compound 20] | ++ (>30% and <45% of the cells in the field of vision contained protein aggregates) | –
5 | C=C(C)C(=O)CC[C@@H](C(=O)O)[C@H]1CC[C@@]2(C)C3=C(CC[C@]12C)[C@@]1(C)CC[C@H](O)C(C)(C)C1CC3 (some centres unmarked) [Compound 7″] | ++ (>30% and <45% of the cells in the field of vision contained protein aggregates) | –
6 | C[C@H](C(O)C/C=N/O)[C@H]1CC[C@@]2(C)C3=C(CC[C@]12C)[C@@]1(C)CC[C@H](O)C(C)(C)C1CC3 (some centres unmarked) [Compound 5] | + (<30% of the cells in the field of vision contained protein aggregates) | –
7 | CC(C)(O)CCC[C@@H](C(=O)O)[C@H]1CC[C@@]2(C)C3=CCC4C(C)(C)[C@@H](O)CC[C@]4(C)C3=CC[C@]12C (some centres unmarked) [Compound 21′] | ++ (>30% and <45% of the cells in the field of vision contained protein aggregates) | –
8 | C[C@H](C(O)CCC(C)(C)O)[C@H]1CC[C@@]2(C)C3=C(CC[C@]12C)[C@@]1(C)C[C@@H](O)[C@H](O)C(C)(C)C1CC3 (some centres unmarked) [Compound 25] | + (<30% of the cells in the field of vision contained protein aggregates) | –
9 | C=C(C)C(=O)CC(O)C(C)[C@H]1CC[C@@]2(C)C3=C(CC[C@]12C)[C@@]1(C)CC[C@H](O)C(C)(C)C1CC3 (some centres unmarked) [Compound 17″] | ++ (>30% and <45% of the cells in the field of vision contained protein aggregates) | –
10 | CC(C)=CCCC(C=O)[C@H]1CC[C@@]2(C)C3=C(CC[C@]12C)[C@@]1(C)CC[C@H](O)C(C)(C)C1CC3 (some centres unmarked) [Compound 2″] | ++ (>30% and <45% of the cells in the field of vision contained protein aggregates) | –
11 | C[C@H](C(O)C/C=C/C(=O)O)[C@H]1CC[C@@]2(C)C3=C(CC[C@]12C)[C@@]1(C)C[C@@H](F)[C@H](O)C(C)(C)C1CC3 (some centres unmarked) [Compound 42] | + (<30% of the cells in the field of vision contained protein aggregates) | –
12 | C[C@H](C(O)/C=C/C(C)(C)O)[C@H]1CC[C@@]2(C)C3=C(CC[C@]12C)[C@@]1(C)CC[C@H](O)C(C)(C)C1CC3 (some centres unmarked) [Compound 4″] | + (<30% of the cells in the field of vision contained protein aggregates) | –
13 | CC(C)=CCC[C@H](C=O)[C@H]1CC[C@@]2(C)C3=C(CC[C@]12C)[C@@]1(C)CCC(=O)C(C)(C)C1CC3 (some centres unmarked) [Compound 5″] | ++ (>30% and <45% of the cells in the field of vision contained protein aggregates) | –
14 | COC(C)(C)C(O)CC(O)[C@@H](C)[C@H]1CC[C@@]2(C)C3=C(CC[C@]12C)[C@@]1(C)CC[C@H](O)C(C)(C)C1CC3 (some centres unmarked) [Compound 8″] | ++ (>30% and <45% of the cells in the field of vision contained protein aggregates) | –
15 | C/C(=C\CC(O)[C@@H](C)[C@H]1CC[C@@]2(C)C3=C(CC[C@]12C)[C@@]1(C)CC[C@H](O)C(C)(C)C1CC3)C(=O)O (some centres unmarked) [Compound 27] | + (<30% of the cells in the field of vision contained protein aggregates) | –
16 | CC(C)=CCC[C@@H](C(=O)O)[C@H]1CC[C@@]2(C)C3=C(CC[C@]12C)[C@@]1(C)CC[C@H](O)C(C)(C)C1CC3 (some centres unmarked) [Trametenolic acid, trametenolic acid] | + (<30% of the cells in the field of vision contained protein aggregates) | decrease of drug concentration in aqueous humor compared with initial concentration immediately after injection [2]: 8%±1.5%; appearance after heat storage ([3]; 80° C. for 1 week): did not change; purity after heat storage ([3]; 80° C. for 2 weeks): above 93%; appearance after heat storage ([3]; 80° C. for 2 weeks): no significant change in appearance and purity; content after heat storage ([3]; 80° C. for 1 day, HPLC): 97%; content after heat storage ([3]; 80° C. for 2 day, HPLC): 96%; content after heat storage ([3]; 80° C. for 3 day, HPLC): 96%; initial experiment purity ([3]; stored at 4° C., HPLC): 98%; turbid area of lens / course of cataract after administration [4]: reduced in a large extent
17 | C[C@H](C(O)CCC(C)(C)O)[C@H]1CC[C@@]2(C)C3=C(CC[C@]12C)[C@@]1(C)C[C@@H](F)[C@H](O)C(C)(C)C1CC3 (some centres unmarked) [Compound 23] | + (<30% of the cells in the field of vision contained protein aggregates) | –
18 | CC(C)(O)CCC[C@@H](C(=O)O)[C@H]1CC[C@@]2(C)C3=C(CC[C@]12C)[C@@]1(C)CC[C@H](O)C(C)(C)C1CC3 (some centres unmarked) [Compound 15′] | + (<30% of the cells in the field of vision contained protein aggregates) | –
19 | CO[C@H]1CC[C@]2(C)C3=C(CCC2C1(C)C)[C@]1(C)CC[C@H]([C@H](C)C(O)CCC(C)(C)OC)[C@@]1(C)CC3 (some centres unmarked) [Compound 9] | ++ (>30% and <45% of the cells in the field of vision contained protein aggregates) | –
20 | CC(=O)[C@@H](C)[C@H]1CC[C@@]2(C)C3=C(CC[C@]12C)[C@@]1(C)CC[C@H](O)C(C)(C)C1CC3 (some centres unmarked) [Compound 6″] | ++ (>30% and <45% of the cells in the field of vision contained protein aggregates) | –
21 | C[C@H](C(O)C/C=C/C(=O)O)[C@H]1CC[C@@]2(C)C3=C(CC[C@]12C)[C@@]1(C)CC[C@H](O)C(C)(C)C1CC3 (some centres unmarked) [Compound 34] | + (<30% of the cells in the field of vision contained protein aggregates) | –
22 | C/C(=C\CC(O)[C@@H](C)[C@H]1CC[C@@]2(C)C3=C(CC[C@]12C)[C@@]1(C)CC[C@H](O)C(C)(C)C1CC3)CO (some centres unmarked) [Compound 32] | + (<30% of the cells in the field of vision contained protein aggregates) | –
23 | C[C@H](C(O)CCC(C)(C)O)[C@H]1CC[C@@]2(C)C3=C(CC[C@]12C)[C@@]1(C)C[C@@H](F)[C@@H](O)C(C)(C)C1CC3 (some centres unmarked) [Compound 24] | + (<30% of the cells in the field of vision contained protein aggregates) | –
24 | CC(=O)O[C@H]1CC[C@]2(C)C3=C(CCC2C1(C)C)[C@]1(C)CC[C@H]([C@H](C)C(O)CC2OC2(C)C)[C@@]1(C)CC3 (some centres unmarked) [Compound 10] | + (<30% of the cells in the field of vision contained protein aggregates) | –
25 | C[C@H](C(O)CC(Br)C(C)(C)O)[C@H]1CC[C@@]2(C)C3=C(CC[C@]12C)[C@@]1(C)CC[C@H](O)C(C)(C)C1CC3 (some centres unmarked) [Compound 13] | ++ (>30% and <45% of the cells in the field of vision contained protein aggregates) | –
26 | CC(C)(O)C(=O)CC[C@@H](C(=O)O)[C@H]1CC[C@@]2(C)C3=C(CC[C@]12C)[C@@]1(C)CC[C@H](O)C(C)(C)C1CC3 (some centres unmarked) [Compound 20′] | ++ (>30% and <45% of the cells in the field of vision contained protein aggregates) | –
